# Source: ChEMBL document CHEMBL5046291, “Evodiamine-Inspired Topoisomerase-Histone Deacetylase Dual Inhibitors: Novel Orally Active Antitumor Agents for Leukemia Therapy” (J Med Chem, 2022)
# Activity calls are given as the source filed them. The calls are words filed in the database; no cut-off is given here.
# What was measured:
# [1] = system: HepG2; assay: Antiproliferative activity against human HepG2 cells assessed as cell growth inhibition incubated for 8 hrs by CCK8 assay; format: functional, cell-based; conditions: HepG2, 8 h
# [2] = Metabolic stability in ICR mouse liver microsome assessed as half life; format: ADME; conditions: liver microsomes
# [3] = target: T1, Protein deacetylase HDAC6 (Homo sapiens, UniProt Q9UBN7); assay: (§1) Inhibition of full-length recombinant N-terminal GST-tagged human HDAC6 expressed in baculovirus infected Sf9 cells using Ac-Leu-Gly-Lys(Ac)-AMC as substrate preincubated for 5 mins followed by substrate addition and further incubated for 30 mins by fluorescence based microtiter plate reader assay
# T1 sequence (Q9UBN7 whole entry): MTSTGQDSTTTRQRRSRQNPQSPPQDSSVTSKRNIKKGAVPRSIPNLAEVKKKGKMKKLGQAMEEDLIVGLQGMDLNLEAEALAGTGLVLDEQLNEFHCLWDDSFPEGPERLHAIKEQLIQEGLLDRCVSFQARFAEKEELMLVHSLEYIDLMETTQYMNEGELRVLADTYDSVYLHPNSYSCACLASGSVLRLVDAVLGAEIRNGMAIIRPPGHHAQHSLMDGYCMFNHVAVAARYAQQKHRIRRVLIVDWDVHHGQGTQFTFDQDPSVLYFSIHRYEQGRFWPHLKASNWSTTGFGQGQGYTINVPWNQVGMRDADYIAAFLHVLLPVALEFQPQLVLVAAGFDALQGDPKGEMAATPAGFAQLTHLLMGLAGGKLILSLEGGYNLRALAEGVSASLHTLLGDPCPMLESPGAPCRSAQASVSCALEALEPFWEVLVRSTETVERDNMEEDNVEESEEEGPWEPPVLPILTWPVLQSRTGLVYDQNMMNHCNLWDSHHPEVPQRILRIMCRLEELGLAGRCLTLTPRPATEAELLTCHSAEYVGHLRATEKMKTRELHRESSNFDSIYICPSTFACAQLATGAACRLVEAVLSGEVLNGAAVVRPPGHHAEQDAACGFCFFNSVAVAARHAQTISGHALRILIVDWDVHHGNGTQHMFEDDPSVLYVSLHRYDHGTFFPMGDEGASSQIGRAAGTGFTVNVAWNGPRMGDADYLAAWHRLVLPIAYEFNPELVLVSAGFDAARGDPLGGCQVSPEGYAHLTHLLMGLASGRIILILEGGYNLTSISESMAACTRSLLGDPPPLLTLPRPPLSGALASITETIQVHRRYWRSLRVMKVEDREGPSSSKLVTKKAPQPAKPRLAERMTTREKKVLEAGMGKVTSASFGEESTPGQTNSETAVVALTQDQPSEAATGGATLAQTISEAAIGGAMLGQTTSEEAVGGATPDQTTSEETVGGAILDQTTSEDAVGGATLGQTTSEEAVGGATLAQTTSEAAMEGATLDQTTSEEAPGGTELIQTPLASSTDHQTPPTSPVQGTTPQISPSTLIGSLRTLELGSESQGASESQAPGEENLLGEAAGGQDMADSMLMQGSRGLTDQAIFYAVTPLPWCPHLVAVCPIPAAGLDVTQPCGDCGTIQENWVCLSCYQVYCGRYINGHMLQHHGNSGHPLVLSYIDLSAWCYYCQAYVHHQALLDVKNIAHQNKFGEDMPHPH
# [4] = target: Histone deacetylase 2 (Homo sapiens, UniProt Q92769); assay: as §1, with “of” for “of full-length”, “full length C-terminal GST tagged” for “N-terminal GST-tagged”, “HDAC2” for “HDAC6”, “Sf9 insect” for “Sf9”
# Histone deacetylase 2, sequence (Q92769 whole entry): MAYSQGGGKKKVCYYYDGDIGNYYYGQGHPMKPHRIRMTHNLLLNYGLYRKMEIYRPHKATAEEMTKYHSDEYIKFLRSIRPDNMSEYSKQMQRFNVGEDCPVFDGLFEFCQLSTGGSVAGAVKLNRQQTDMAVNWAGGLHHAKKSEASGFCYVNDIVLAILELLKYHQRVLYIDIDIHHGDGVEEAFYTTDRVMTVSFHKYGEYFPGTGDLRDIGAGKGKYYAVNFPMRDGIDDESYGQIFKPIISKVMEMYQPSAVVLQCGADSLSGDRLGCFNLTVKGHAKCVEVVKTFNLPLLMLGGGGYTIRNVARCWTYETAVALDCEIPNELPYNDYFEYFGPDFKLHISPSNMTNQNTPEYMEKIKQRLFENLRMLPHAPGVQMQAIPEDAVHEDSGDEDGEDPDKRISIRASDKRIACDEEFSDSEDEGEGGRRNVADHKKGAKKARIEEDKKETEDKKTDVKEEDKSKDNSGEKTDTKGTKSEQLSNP
# [5] = system: HEL; assay: Antitumor activity against HEL cells xenografted in BALB/C mouse assessed as tumor growth inhibition at 10 mg/kg, po qd for 14 days consecutively by caliper method relative to control; format: functional, Homo sapiens; conditions: 336 h, time 14 day, read-out: TGI
# [6] = system: HEL; assay: Induction of apoptosis in HEL cells assessed as apoptotic cells at 0.1 uM incubated for 48 hrs by annexin V-FITC/PI staining based flow cytometry (reference value: 3.95%); format: functional, Homo sapiens
# [7] = target: Histone deacetylase 1 (Homo sapiens, UniProt Q13547); assay: Inhibition of full-length recombinant human HDAC1 expressed in Baculovirus expression system using Ac-Leu-Gly-Lys(Ac)-AMC as substrate preincubated for 5 mins followed by substrate addition and further incubated for 30 mins by fluorescence based microtiter plate reader assay
# Histone deacetylase 1, sequence (Q13547 whole entry): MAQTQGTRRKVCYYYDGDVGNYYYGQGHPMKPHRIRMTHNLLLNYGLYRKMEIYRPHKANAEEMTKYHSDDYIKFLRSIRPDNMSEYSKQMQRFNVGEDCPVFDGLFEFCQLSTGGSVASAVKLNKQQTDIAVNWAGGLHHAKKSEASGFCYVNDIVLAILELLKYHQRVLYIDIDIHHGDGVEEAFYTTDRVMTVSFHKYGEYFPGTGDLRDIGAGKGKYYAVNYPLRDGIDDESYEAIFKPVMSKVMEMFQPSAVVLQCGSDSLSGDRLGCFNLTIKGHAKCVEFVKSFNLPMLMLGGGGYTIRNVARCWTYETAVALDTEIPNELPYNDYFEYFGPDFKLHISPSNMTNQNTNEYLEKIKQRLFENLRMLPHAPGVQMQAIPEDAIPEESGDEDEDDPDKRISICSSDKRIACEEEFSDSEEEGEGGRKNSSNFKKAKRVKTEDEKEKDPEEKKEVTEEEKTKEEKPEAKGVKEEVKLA
# [8] = system: HEL; assay: Antiproliferative activity against HEL cells assessed as cell growth inhibition incubated for 8 hrs by CCK8 assay; format: functional, cell-based; conditions: Homo sapiens
# [9] = system: HEL; assay: Antitumor activity against HEL cells xenografted in BALB/C mouse assessed as T/C value at 5 mg/kg, po qd for 14 days consecutively by caliper method relative to control; format: functional, Homo sapiens; conditions: time 14 day
# [10] = Metabolic stability in ICR mouse liver microsome assessed as clearance; format: ADME; conditions: microsomes
# [11] = system: A549; assay: Antiproliferative activity against human A549 cells assessed as cell growth inhibition incubated for 8 hrs by CCK8 assay; format: functional, cell-based; conditions: A549, 8 h
# [12] = target: T2, DNA topoisomerase 1 (Homo sapiens) (UniProt P11387); assay: Inhibition of recombinant Top1 (unknown origin) assessed as inhibition of relaxation of supercoiled pBR322 plasmid DNA at 50 uM incubated for 15 mins by ethidium bromide staining based agarose gel electrophoresis analysis
# T2 sequence (whole entry): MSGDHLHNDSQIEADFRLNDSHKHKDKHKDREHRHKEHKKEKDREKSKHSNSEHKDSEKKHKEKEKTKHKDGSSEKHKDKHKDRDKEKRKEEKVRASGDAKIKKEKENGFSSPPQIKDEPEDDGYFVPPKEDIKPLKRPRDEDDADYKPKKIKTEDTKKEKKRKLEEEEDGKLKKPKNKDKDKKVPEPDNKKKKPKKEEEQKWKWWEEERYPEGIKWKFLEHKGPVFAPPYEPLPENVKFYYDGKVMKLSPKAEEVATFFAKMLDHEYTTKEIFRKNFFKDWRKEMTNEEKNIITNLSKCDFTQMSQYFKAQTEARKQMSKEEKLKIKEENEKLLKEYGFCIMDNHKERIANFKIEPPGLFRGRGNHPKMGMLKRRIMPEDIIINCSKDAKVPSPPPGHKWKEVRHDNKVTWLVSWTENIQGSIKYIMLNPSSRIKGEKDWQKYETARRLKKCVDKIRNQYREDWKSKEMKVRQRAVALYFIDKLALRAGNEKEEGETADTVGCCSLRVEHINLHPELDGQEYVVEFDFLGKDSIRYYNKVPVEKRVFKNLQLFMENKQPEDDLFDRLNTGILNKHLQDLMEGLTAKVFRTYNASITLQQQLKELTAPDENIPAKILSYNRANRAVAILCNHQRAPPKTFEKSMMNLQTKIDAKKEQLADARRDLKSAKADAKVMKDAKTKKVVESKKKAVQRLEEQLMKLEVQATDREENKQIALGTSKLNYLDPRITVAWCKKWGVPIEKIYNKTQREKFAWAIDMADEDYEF
# [13] = system: HEL; assay: Induction of cell cycle arrest in HEL cells assessed as change in S-phase ratio at 0.5 uM incubated for 48 hrs by PI staining based flow cytometry relative to control; format: functional, Homo sapiens
smiles,measurement,setting,value
CN1c2ccc(F)cc2C(=O)N2CCc3c([nH]c4ccc(OCc5ccc(/C=C/C(=O)NO)cc5)cc34)C21 (stereo not drawn),IC50,[1],260 nM
same,half-life,[2],31.5 min
same,IC50,[3],89 nM
same,IC50,[4],140 nM
same,inhibition in vivo at 10 mg/kg,[5],68.5%
same,Activity,[6],56.02%
same,IC50,[7],36 nM
same,IC50,[8],29 nM
same,T/C,[9],54.3%
same,CLH,[10],173 mL/min/kg
same,IC50,[11],680 nM
same,inhibition,[12],Active
same,Activity,[13],25.8%
